Reference: patent publication US7276532B2, “Remedies for vesical hyperactivity” (Kyowa Hakko Kogyo Co., Ltd., priority 2001, dated 2007)

How the values were obtained:
spinal cord-injured rats = test: Inhibitory activity on detrusor hyperreflexia (cystometry test); format: in vivo, rat; settings: average ± standard error
Procedure: The experiment was carried out according to the method of Cheng, et al. [Brain Res., Vol. 678, pp. 40-48 (1995)].
(§1) Female SD rats of 8 to 10 weeks of age (supplied by Japan SLC) were used in the test. Five to seven animals of these rats were put in each metal cage and reared by allowing them to freely take commercially available chow and water, in an animal room at room temperature between 19 and 25° C. and humidity between 30 and 70% under illumination for 12 hours (from 7:00 a.m. to 7:00 p.m.) per day.
An operation of spinal cord injury was performed in the rats. Each animal was anesthetized with diethyl ether and the skin of the back side thoracic cord part was incised. A laminectomy at the 7th to 8th thoracic vertebrae level was performed. Then, the thoracic cord at the T7-T8 segments was macroscopically cut and a section of spinal cord (about 5 mm) was removed, and the wound cavity of the removed part was filled with oxidized regenerated cellulose for hemostasis. The incised part was sutured with a surgical silk. After the spinal cord injury operation, urine was expressed manually twice per day (at 8:00-9:00 and 18:00-19:00) for about 3 weeks until autonomic micturition developed. An antibiotic (ampicillin, Sigma. Chemical Co.) was intramuscularly administered to the animals at a dose of 150 mg/kg once to twice per day for about 2 weeks.
(§2) Four to five weeks after the spinal cord injury, the rats were subjected to bladder catheterization. Under diethyl ether anesthesia, the bladder was exposed by midline incision of the abdomen. […] The bladder catheter was fixed with a surgical silk ligature and indwelled. The other end of the catheter was exposed subcutaneously from the back of the neck, plugged and then fixed to the skin with a surgical thread.
Four to six days after the bladder catheterization, a cystometry test was performed. The rats were put in a Bollman cage (Natsume Seisakusho Co., Ltd.) and a three-way cock was connected to the bladder catheter, one end of the cock was connected to a pressure transducer (Nihon Kohden Corp.) and the other end was connected to a 50-mL syringe (Terumo Corp.) arranged to an infusion pump (Harvard Apparatus, Inc.) for physiological saline infusion. The intravesical pressure signal from the pressure transducer was amplified with a strain pressure amplifier (AP-601G, Nihon Kohden Corp.) connected thereto, and was recorded on a thermal array recorder (RTA-1200, Nihon Kohden Corp.) via a polygraph system (RMP-6008, Nihon Kohden Corp.) containing the above amplifier. Sixty to ninety minutes after the completion of the preparation for the measurement, a room temperature physiological saline was infused into the bladder at a flow rate of 10 mL/h for 30 minutes, the occurence of micturition contractions was confirmed. Thirty minutes later, the infusion of physiological saline was carried out again for 30 minutes, and the intravesical pressure was measured to be used as the pre-administration value. Each of Compounds 1 to 6 was suspended in a 0.5 w/v % aqueous solution of methylcellulose at a concentration of 1 mg/mL suspension. The suspension was further diluted with a 0.5 w/v % aqueous solution of methylcellulose to prepare a suspension or solution for the administration at the intended concentration, which was then orally administered to the animals at a volume of 1 mL/kg. The period of 1, 3 and 5 hours after the dosing was used as the measuring time after the administration of the solvent or a compound tested, and the intravesical infusion of a physiological saline was carried out during a duration of 15 minutes around each measuring time (i.e. from 45 to 75 minutes, from 165 to 195 minutes and from 285 to 315 minutes after the administration of the compound).
Micturition contraction was measured as an index of the voiding function and pre-micturition contraction was measured as an index of detrusor hyperreflexia. […]

[1] = test system: rats with bladder hypertrophy; test: Inhibitory activity on detrusor instability (cystometry test after partial urethral obstruction); format: in vivo, rat; settings: average ± standard error
Procedure: The experiment was carried out according to the method of Malmgren, et al. [J. Urol., Vol. 142, pp. 1134-1138 (1989)].
as §1, with “(7:00 a.m.-7:00” for “(from 7:00 a.m. to 7:00”
The rats were subjected to operation of partial urethral obstruction. Each animal was anesthetized by intraperitoneal administration of 50 mg/kg pentobarbital sodium (Dainippon Pharmaceutical Co., Ltd.), and the midline incision of the skin and muscle was made in the lower abdomen. A polyethylene tube (PE-20, Nippon Becton Dickinson Co., Ltd.) was inserted into urethra from the urethral to the bladder neck. After the proximal urethra was peeled and double-ligated, the polyethylene tube was pulled out to cause partial urethral obstruction. The incised part was-sutured with a surgical silk thread. An antibiotic (ampicillin, Sigma Chemical Co.) was intramusclarly administered to the animals at a dose of 150 mg/kg.
as §2, with “Six” for “Four to five”, “operation of the partial urethral obstruction,” for “spinal cord injury,”, “rats with bladder hypertrophy” for “rats”, “anesthesia with pentobarbital sodium,” for “diethyl ether anesthesia,”
Four to six days after the bladder catheterization, a cystometry test was performed. The rats were put in a Bollman cage (Natsume Seisakusho Co., Ltd.) and a three-way cock was connected to the bladder catheter, one end of the cock was connected to a pressure transducer (Nihon Kohden Corp.) and the other end was connected to a 50-mL syringe (Terumo Corp.) arranged to an infusion pump (Harvard Apparatus, Inc.) for physiological saline infusion. The intravesical pressure signal from the pressure transducer was amplified with a strain pressure amplifier (AP-601G, Nihon Kohden Corp.) connected thereto, and was recorded on a thermal array recorder (RTA-1200, Nihon Kohden Corp.) via a polygraph system (RMP-6008, Nihon Kohden Corp.) containing the above amplifier. Sixty to ninety minutes after the completion of the preparation for the measurement, intravesical infusion of a room temperature physiological saline at a flow rate of 10 mL/h was started and continued until the completion of the test, and the occurrence of micturition contractions and pre-micturition contractions were confirmed. The chart for 30 minutes after 3 hours from the commencement of the saline infusion was used as the values before the drug administration. Each of Compounds 1 to 3 was suspended in a 0.5 w/v % aqueous solution of methylcellulose at a concentration of 1 mg/mL. The suspension was further diluted with a 0.5 w/v % aqueous solution of methylcellulose to prepare a suspension or solution for the administration at the intended concentration. This was then orally administered to the animals at a volume of 1 mL/kg. The period of 1, 3 and 5 hours after the dosing was used as the measuring time after the administration of the solvent or a compound tested, and a duration of 15 minutes around each measuring time (45 to 75 minutes, 165 to 195 minutes and 285 to 315 minutes after the administration of the compound) was used as the measuring period.
Micturition contraction was used as an index of the voiding function and pre-micturition contraction was measure as an index of detrusor instability. […]

dd male mice = test: Acute toxicity test; format: in vivo; settings: oral administration, mortality on the seventh day after administration
Procedure: The test compound was administered orally or intraperitoneally to 3 animals per group of dd male mice (body weight: 20±1 g). The minimum lethal dose (MLD) value was obtained by observing mortality on the seventh day after the administration calculated.

C[C@](O)(C(=O)Nc1cccc2c1C(=O)c1sccc1CS2(=O)=O)C(F)(F)F [Compound 1]
micturition contractions (relative value, before administration = 100) (spinal cord-injured rats; 0.001 mg/kg p.o., after 1 hr.): 106.5 ± 11.3%
pre-micturition contractions (relative value, before administration = 100) (spinal cord-injured rats; 0.001 mg/kg p.o., after 1 hr.): 83.5 ± 6.8%
micturition contractions (relative value, before administration = 100) (spinal cord-injured rats; 0.001 mg/kg p.o., after 3 hrs.): 101.7 ± 9.5%
pre-micturition contractions (relative value, before administration = 100) (spinal cord-injured rats; 0.001 mg/kg p.o., after 3 hrs.): 95.4 ± 12.0%
micturition contractions (relative value, before administration = 100) (spinal cord-injured rats; 0.001 mg/kg p.o., after 5 hrs.): 103.1 ± 6.5%
pre-micturition contractions (relative value, before administration = 100) (spinal cord-injured rats; 0.001 mg/kg p.o., after 5 hrs.): 105.5 ± 20.8%
micturition contractions (relative value, before administration = 100) (spinal cord-injured rats; 0.01 mg/kg p.o., after 1 hr.): 114.4 ± 9.5%
pre-micturition contractions (relative value, before administration = 100) (spinal cord-injured rats; 0.01 mg/kg p.o., after 1 hr.): 59.6 ± 8.1 %
micturition contractions (relative value, before administration = 100) (spinal cord-injured rats; 0.01 mg/kg p.o., after 3 hrs.): 117.6 ± 13.9%
pre-micturition contractions (relative value, before administration = 100) (spinal cord-injured rats; 0.01 mg/kg p.o., after 3 hrs.): 51.2 ± 6.7 %
micturition contractions (relative value, before administration = 100) (spinal cord-injured rats; 0.01 mg/kg p.o., after 5 hrs.): 117.6 ± 12.7%
pre-micturition contractions (relative value, before administration = 100) (spinal cord-injured rats; 0.01 mg/kg p.o., after 5 hrs.): 42.2 ± 7.2 %
micturition contractions (relative value, before administration = 100) (spinal cord-injured rats; 0.1 mg/kg p.o., after 1 hr.): 109.3 ± 6.3%
pre-micturition contractions (relative value, before administration = 100) (spinal cord-injured rats; 0.1 mg/kg p.o., after 1 hr.): 52.3 ± 9.1 %
micturition contractions (relative value, before administration = 100) (spinal cord-injured rats; 0.1 mg/kg p.o., after 3 hrs.): 110.2 ± 5.4%
pre-micturition contractions (relative value, before administration = 100) (spinal cord-injured rats; 0.1 mg/kg p.o., after 3 hrs.): 33.3 ± 6.3 %
micturition contractions (relative value, before administration = 100) (spinal cord-injured rats; 0.1 mg/kg p.o., after 5 hrs.): 112.4 ± 7.0%
pre-micturition contractions (relative value, before administration = 100) (spinal cord-injured rats; 0.1 mg/kg p.o., after 5 hrs.): 28.5 ± 6.2 %
micturition contractions (relative value, before administration = 100) ([1]; 0.001 mg/kg p.o., after 1 hr.): 99.3 ± 2.3%
pre-micturition contractions (relative value, before administration = 100) ([1]; 0.001 mg/kg p.o., after 1 hr.): 105.9 ± 7.8%
micturition contractions (relative value, before administration = 100) ([1]; 0.001 mg/kg p.o., after 3 hrs.): 101.5 ± 3.3%
pre-micturition contractions (relative value, before administration = 100) ([1]; 0.001 mg/kg p.o., after 3 hrs.): 100.3 ± 10.0%
micturition contractions (relative value, before administration = 100) ([1]; 0.001 mg/kg p.o., after 5 hrs.): 98.7 ± 5.2%
pre-micturition contractions (relative value, before administration = 100) ([1]; 0.001 mg/kg p.o., after 5 hrs.): 104.2 ± 10.2%
micturition contractions (relative value, before administration = 100) ([1]; 0.01 mg/kg p.o., after 1 hr.): 99.6 ± 1.2%
pre-micturition contractions (relative value, before administration = 100) ([1]; 0.01 mg/kg p.o., after 1 hr.): 59.5 ± 4.1 %
micturition contractions (relative value, before administration = 100) ([1]; 0.01 mg/kg p.o., after 3 hrs.): 92.6 ± 3.2%
pre-micturition contractions (relative value, before administration = 100) ([1]; 0.01 mg/kg p.o., after 3 hrs.): 69.5 ± 4.4 %
micturition contractions (relative value, before administration = 100) ([1]; 0.01 mg/kg p.o., after 5 hrs.): 90.1 ± 4.3%
pre-micturition contractions (relative value, before administration = 100) ([1]; 0.01 mg/kg p.o., after 5 hrs.): 67.8 ± 5.5 %
micturition contractions (relative value, before administration = 100) ([1]; 0.1 mg/kg p.o., after 1 hr.): 106.2 ± 9.2%
pre-micturition contractions (relative value, before administration = 100) ([1]; 0.1 mg/kg p.o., after 1 hr.): 55.8 ± 8.2 %
micturition contractions (relative value, before administration = 100) ([1]; 0.1 mg/kg p.o., after 3 hrs.): 105.2 ± 9.6%
pre-micturition contractions (relative value, before administration = 100) ([1]; 0.1 mg/kg p.o., after 3 hrs.): 66.2 ± 4.7 %
micturition contractions (relative value, before administration = 100) ([1]; 0.1 mg/kg p.o., after 5 hrs.): 100.1 ± 8.6%
pre-micturition contractions (relative value, before administration = 100) ([1]; 0.1 mg/kg p.o., after 5 hrs.): 69.2 ± 7.4 %
minimum lethal dose (MLD) (dd male mice): > 1000 mg/kg
